Data taken from patent US10336707B2, “Heterocyclic derivatives modulating activity of certain protein kinases” (EUDENDRON S.R.L., priority 2014, dated 2019).
Like-named read-outs stand apart in the source and are kept apart here.

How the values were obtained:
[1] = system: Karpas 299 lymphoma cell line positive for the oncogenic fusion protein NPM-ALK; experiment: Tritiated thymidine uptake cell proliferation assay, Karpas 299; assay type: cell-based; details: Homo sapiens
Protocol: (§1) Method: Tritiated Thymidine Uptake Cell Proliferation Assay
(§2) The following procedure was used with parent untransformed BaF3 cells, BaF3 cells transformed with the oncogenic fusion protein NPM/ALK, NPM/ALK positive SUDHL-1 cells, NPM/ALK positive SUPM2, ALK-negative HL60 cells, NPM/ALK positive KARPAS-299 cells. The parent untransformed BaF3 cells or Alk-negative HL60 cells are used as controls. Cells were seeded in U-bottomed 96-well plates at 10000 cells/well in a volume of 100 μl in supplemented medium. In the case of the parent untransformed BaF3 cells, the medium was supplemented with IL-3. Serial dilutions of inhibitors were added to the appropriate wells and volumes adjusted to 200 μl. Controls were treated with the equivalent volume of vehicle, DMSO, alone. Plates were incubated at 37° C. for 72 h. 3[H]-thymidine (1 μCi/well) was added for the last 16 h of incubation. Cells were harvested on to paper filters and 3[H]-thymidine incorporation was measured using a scintillation counter (1430 MicroBeta, Wallac, Turku, Finland). The 50% inhibitory concentration (IC50) was defined as the concentration of inhibitor, expressed in nanomolar units, that gave a 50% decrease in 3[H]-thymidine uptake compared with controls.
In Table 1 are listed results for selected examples of compounds of the invention, reported as percentage of inhibition of cell proliferation at 200 nM, obtained from cellular assays in Karpas 299 lymphoma cell line positive for the oncogenic fusion protein NPM-ALK.

[2] = target: T1, BaF3 cell line transfected with the oncogenic fusion protein NPM-ALK and expressing the mutation L1196M (Homo sapiens, UniProt Q9UM73, L1196M, cells depend on it); experiment: Tritiated thymidine uptake cell proliferation assay, BaF3 NPM-ALK L1196M; assay type: cell-based, murine; details: for % Inhibition BaF3 NPM-ALK L1196M cells: percentage of inhibition of cell proliferation at 200 nM; for GI50: averaged IC50 values of cell proliferation inhibition, class letters, read-out: IC50 BaF3 NPM-ALK L1196M cells
T1 construct: fused on or other part: P06748 (Nucleophosmin)
T1 sequence (Q9UM73 whole entry L1196M, the tested form may be a part): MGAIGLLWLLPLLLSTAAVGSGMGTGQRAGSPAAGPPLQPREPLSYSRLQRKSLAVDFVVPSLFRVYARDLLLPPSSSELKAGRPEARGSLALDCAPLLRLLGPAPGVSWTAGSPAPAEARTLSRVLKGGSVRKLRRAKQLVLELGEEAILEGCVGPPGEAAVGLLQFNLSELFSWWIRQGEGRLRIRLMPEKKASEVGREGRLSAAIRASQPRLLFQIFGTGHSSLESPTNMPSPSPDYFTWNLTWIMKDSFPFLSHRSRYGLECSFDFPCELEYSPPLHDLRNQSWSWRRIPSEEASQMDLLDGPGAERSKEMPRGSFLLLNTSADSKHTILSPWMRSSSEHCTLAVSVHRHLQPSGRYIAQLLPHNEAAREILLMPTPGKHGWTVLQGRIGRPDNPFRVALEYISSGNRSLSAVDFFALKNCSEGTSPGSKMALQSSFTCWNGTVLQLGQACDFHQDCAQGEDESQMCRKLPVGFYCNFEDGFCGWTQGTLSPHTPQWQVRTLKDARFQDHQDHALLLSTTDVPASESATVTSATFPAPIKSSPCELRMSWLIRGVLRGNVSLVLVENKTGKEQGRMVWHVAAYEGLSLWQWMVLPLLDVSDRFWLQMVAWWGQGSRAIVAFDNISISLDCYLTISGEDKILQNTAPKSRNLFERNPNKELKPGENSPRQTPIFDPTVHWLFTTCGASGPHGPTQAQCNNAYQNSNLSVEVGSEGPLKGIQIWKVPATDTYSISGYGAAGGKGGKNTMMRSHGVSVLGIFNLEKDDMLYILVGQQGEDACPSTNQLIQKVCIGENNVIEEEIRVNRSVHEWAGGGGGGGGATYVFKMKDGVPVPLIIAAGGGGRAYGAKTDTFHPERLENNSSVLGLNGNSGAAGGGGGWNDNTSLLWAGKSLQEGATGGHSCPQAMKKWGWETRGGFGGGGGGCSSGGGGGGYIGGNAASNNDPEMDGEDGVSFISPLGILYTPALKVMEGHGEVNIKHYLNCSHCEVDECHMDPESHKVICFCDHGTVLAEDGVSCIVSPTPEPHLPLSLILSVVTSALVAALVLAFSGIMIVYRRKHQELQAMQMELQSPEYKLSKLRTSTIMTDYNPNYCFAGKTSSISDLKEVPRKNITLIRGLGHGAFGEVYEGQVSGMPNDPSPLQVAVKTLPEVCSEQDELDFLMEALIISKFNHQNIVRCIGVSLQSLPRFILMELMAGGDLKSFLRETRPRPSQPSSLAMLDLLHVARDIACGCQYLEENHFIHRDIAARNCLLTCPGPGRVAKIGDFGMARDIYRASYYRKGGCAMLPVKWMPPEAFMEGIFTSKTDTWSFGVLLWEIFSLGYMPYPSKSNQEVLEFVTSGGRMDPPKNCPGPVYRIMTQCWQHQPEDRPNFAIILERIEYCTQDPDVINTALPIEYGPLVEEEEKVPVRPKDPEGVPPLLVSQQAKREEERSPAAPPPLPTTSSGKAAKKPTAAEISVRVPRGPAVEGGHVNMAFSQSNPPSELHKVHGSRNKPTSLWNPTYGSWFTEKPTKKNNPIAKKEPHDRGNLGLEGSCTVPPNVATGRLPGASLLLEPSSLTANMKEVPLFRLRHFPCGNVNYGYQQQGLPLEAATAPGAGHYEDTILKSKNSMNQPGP
Protocol: as §1, §2
In Table 2 are listed results for selected examples of compounds of the invention, reported as percentage of inhibition of cell proliferation at 200 nM, obtained from cellular assays in BaF3 cell line transfected with the oncogenic fusion protein NPM-ALK and expressing the mutation L1196M.
In Table 3 are listed averaged IC50 values of cell proliferation inhibition for selected examples of compounds of the present invention, obtained from cellular assays in BaF3 cell line transfected with the oncogenic fusion protein NPM-ALK and expressing the mutation L1196M. The letter “A” designates an IC50 value between 1 nM and 50 nM, the letter “B” designates an IC50 value between 50 nM and 100 nM, the letter “C” designates an IC50 value between 100 and 500 nM.

[3] = KARPAS-299, percentage of inhibition of cell proliferation at 200 nM, read-out: % Inhibition Karpas 299 cells

SMILES | inhibition at 0.2 µM [1, 3] | % Inhibition BaF3 NPM-ALK L1196M cells [2] | GI50 [2] | inhibition at 0.2 µM ([1]; KARPAS-299, read-out: % Inhibition Karpas 299 cells)
CN1CCN(c2ccc(C(=O)Nc3n[nH]c4cc(-c5ccccc5)c(Cc5cc(F)cc(F)c5)cc34)c(NC3CCOCC3)c2)CC1 [Example 23, N-[5-[(3,5-difluorophenyl)methyl]-6-phenyl-1H-indazol-3-yl]-4-(4-methylpiperazin-1-yl)-2-(tetrahydropyran-4-ylamino)benzamide] | 71% | 61% |  | 
CN1CCN(c2ccc(C(=O)Nc3n[nH]c4cc(-c5ccc(O)c(F)c5)c(Cc5cc(F)cc(F)c5)cc34)c(NC3CCOCC3)c2)CC1 [Example 25, N-[5-[(3,5-difluorophenyl)methyl]-6-(3-fluoro-4-hydroxy-phenyl)-1H-indazol-3-yl]-4-(4-methylpiperazin-1-yl)-2-(tetrahydropyran-4-ylamino)benzamide] | 100% | 100% | 1 to 50 nM | 
CN1CCN(c2ccc(C(=O)Nc3n[nH]c4cc(-c5ccc6[nH]ncc6c5)c(Cc5cc(F)cc(F)c5)cc34)c(NC3CCOCC3)c2)CC1 [Example 26, N-[5-[(3,5-difluorophenyl)methyl]-6-(1H-indazol-5-yl)-1H-indazol-3-yl]-4-(4-methylpiperazin-1-yl)-2-(tetrahydropyran-4-ylamino)benzamide] | 99% | 99% | 1 to 50 nM | 
CN1CCN(c2ccc(C(=O)Nc3n[nH]c4cc(-c5cncnc5)c(Cc5cc(F)cc(F)c5)cc34)c(NC3CCOCC3)c2)CC1 [Example 27, N-[5-[(3,5-difluorophenyl)methyl]-6-(pyrimidin-5-yl)-1H-indazol-3-yl]-4-(4-methylpiperazin-1-yl)-2-(tetrahydropyran-4-ylamino)benzamide] | 87% | 62% |  | 
CN1CCN(c2ccc(C(=O)Nc3n[nH]c4cc(-c5ccc6c(c5)C(=O)NC6)c(Cc5cc(F)cc(F)c5)cc34)c(NC3CCOCC3)c2)CC1 [Example 28, N-[5-[(3,5-difluorophenyl)methyl]-6-(3-oxoisoindolin-5-yl)-1H-indazol-3-yl]-4-(4-methylpiperazin-1-yl)-2-(tetrahydropyran-4-ylamino)benzamide] | 55% | 60% |  | 
CN1CCN(c2ccc(C(=O)Nc3n[nH]c4cc(-c5cnc6[nH]ccc6c5)c(Cc5cc(F)cc(F)c5)cc34)c(NC3CCOCC3)c2)CC1 [Example 29, N-[5-[(3,5-difluorophenyl)methyl]-6-(1H-pyrrolo[2,3-b]pyridin-5-yl)-1H-indazol-3-yl]-4-(4-methylpiperazin-1-yl)-2-(tetrahydropyran-4-ylamino)benzamide] | 100% | 98% | 50 to 100 nM | 
CN1CCN(c2ccc(C(=O)Nc3n[nH]c4cc(-c5ccc(O)cc5)c(Cc5cc(F)cc(F)c5)cc34)cc2)CC1 [Example 33, N-[5-[(3,5-difluorophenyl)methyl]-6-(4-hydroxyphenyl)-1H-indazol-3-yl]-4-(4-methylpiperazin-1-yl)benzamide] |  | 99% | 1 to 50 nM | 100%
Cc1cc(O)ccc1-c1cc2[nH]nc(NC(=O)c3ccc(N4CCN(C)CC4)cc3)c2cc1Cc1cc(F)cc(F)c1 [Example 34, N-[5-[(3,5-difluorophenyl)methyl]-6-(4-hydroxy-2-methyl-phenyl)-1H-indazol-3-yl]-4-(4-methylpiperazin-1-yl)benzamide] | 100% | 100% | 1 to 50 nM | 
CN1CCN(c2ccc(C(=O)Nc3n[nH]c4cc(-c5ccc6[nH]ncc6c5)c(Cc5cc(F)cc(F)c5)cc34)cc2)CC1 [Example 35, N-[5-[(3,5-difluorophenyl)methyl]-6-(1H-indazol-5-yl)-1H-indazol-3-yl]-4-(4-methylpiperazin-1-yl)benzamide] | 100% | 96% | 50 to 100 nM | 
